Laboratory results as given in patent US8440830B2, “Tetrahydro-fused pyridines as histone deacetylase inhibitors” (4SC AG, priority 2007, dated 2013).
Like-named read-outs stand apart in the source and are kept apart here.

Legend:
[1] = system: fully transformed malignant cancer cell lines; assay: Anti-proliferative activity, selection of cell lines (Alamar Blue); type: cell-based; details: Homo sapiens, 72 h, mean over cell lines, read-out: Mean IC50 values as calculated for fully malignant cancer cell lines
Method: (§1) The anti-proliferative activity of the histone deacetylase inhibitory compounds as described herein, is evaluated using the following cell lines: HeLa and HeLa-KB (cervical carcinoma), H460 (non small cell lung cancer), A549 (non-small cell lung cancer), MCF7 (breast carcinoma), MCF10A (normal, non tumorigenic breast epithelial), MDA-MB468 (breast carcinoma), MDA-MB435 (breast carcinoma), MDA-MB231 (breast carcinoma), SKBR-3 (breast carcinoma), SKOV-3 (ovarial carcinoma), A-2780 (ovarial carcinoma), RKO (colon carcinoma), HCT-15 (colon carcinoma), HCT-116 (colon carcinoma), PC3 (prostate carcinoma), BPH1 (benign prostate hyperplasia), AsPC1 (pancreatic carcinoma), Ca127 (tongue carcinoma), A-431 (vulva carcinoma), Hec1A (endometrial carcinoma), Saos-2 (osteosarcoma), U87MG (glioblastoma), WM266-4 (melanoma), K562 (chronic myeloid leukemia), EOL1 (acute hypereosinophilic myeloid leukemia), CCRF-CEM and CCRF-CEM VCR1000 (acute lymphoblastic leukemia sensitive and resistant towards Vincristine). For quantification of cellular proliferation/living cells the Alamar Blue (Resazurin) cell viability assay is applied (O'Brien et al. Eur J Biochem 267, 5421-5426, 2000). In this assay Resazurin is reduced to the fluorescent resorufine by cellular dehydrogenase activity, correlating with viable, proliferating cells. The examples are dissolved as 20 mM solutions in dimethylsulfoxide (DMSO) and subsequently diluted in semi-logarithmic steps. Cell lines are seeded at respective density into 96 well flat bottom plates in a volume of 200 μl per well. 24 h after seeding 1 μl each of the compound dilutions are added into each well of the 96 well plate. Each compound dilution is tested as quadruplicates. Wells containing untreated control cells are filled with 200 μl DMEM medium containing 0.5% v:v DMSO. The cells are then incubated with the compounds for 72 h at 37° C. in a humidified atmosphere containing 5% carbon dioxide. To determine the viability of the cells, 20 μl of a Resazurin solution (Sigma; 90 mg/l) are added. After 4 h incubation at 37° C. the fluorescence is measured at an extinction of λ=544 nm and an emission of λ=590 nm. For the calculation of the cell viability the emission value from untreated cells is set as 100% viability and the emission rates of treated cells are set in relation to the values of untreated cells. Viabilities are expressed as % values. The corresponding IC50 values of the compounds for cytotoxic activity are determined from the concentration-effect curves by means of non-linear regression.
The anti-proliferative activity of compounds from examples 1, 2, 3, 12 and 150 is evaluated by using a broad selection of non-malignant cell lines and fully transformed malignant cancer cell lines.

[2] = system: RKO colon carcinoma cells with conditional p21^waf1 expression; assay: Cell cycle dependent cytotoxicity, RKO exop21 cell system; type: cell-based; details: Homo sapiens, 72 h
Method: as §1
For determination of cell-cycle dependent cytotoxicity, the RKO exop21 cell system is applied (Schmidt et al. Oncogene 19: 2423-2429, 2000). Briefly, RKO cells with/without p21^waf1 expression (2×10^4 cells/well induced, 6×10^3 cells/well not induced) are treated with the compounds for 72 h and metabolic activity quantified as described before. The expression of p21^waf1 was induced by treatment with Pronasterone A, causing a complete proliferation arrest of RKO cells in the G1 and G2 phases of the cell division cycle.

A549 NSCLC cells = assay: Cell cycle analysis by flow cytometry; type: cell-based, human; details: A549, 24 h treatment
Method: A549 NSCLC cells (ATTC CCL-185) are cultivated in DMEM with high glucose (supplemented with 10% FBS) at 5% CO2 and 37° C. in a humidified atmosphere under standard cell culture conditions. 24 h before compound treatment, cells are seeded at 5×10^4 cells/ml (=5×10^5 cells/10 cm cell culture dish) to allow logarithmic proliferation during the experiment. After 24 h, cells were treated with test compound or 0.5 vol % DMSO as a control. After 24 h and 48 h treatment, the culture medium is collected and detached, floating cells are collected by short centrifugation (5 min at 1200 rpm). Attached cells are washed once with 5 ml PBS, detached by treatment with 3 ml trypsin/EDTA solution (short incubation for 3-5 min) and—together with detached, floating cells—transferred into 15 ml Falcon tubes. The cell culture dish is washed with 10 ml DMEM to collect all remaining cells. After centrifugation for 5 min at 1200 rpm at room temperature, the supernatant is discarded and the cell pellet washed twice with 10 ml PBS. The supernatant is discarded, the cells resuspended in 4 ml ice-cold fixation solution (70 vol % ethanol, 30 vol % H2O; stored at −20° C.) and stored at −20° C. overnight. Next, 10 ml PBS (4° C.) is added to the cells, before centrifugation for 5 min at 1200 rpm (4° C.). The supernatant is discarded, the cell pellet washed once with 10 ml PBS (4° C.) and the cell pellet finally resuspended in about 1 ml staining solution (10 μg/ml RNAse A, 10 μg/ml propidiumiodide in PBS, final volume dependent on cell number). After incubation for 30 min at room temperature in the dark, cells are stored on ice and analyzed using the Becton Dickinson FACS Canto device. Analysis is done at an excitation of λ=488 nm with emission set as λ=600 nm.
Data analysis: Cells are analyzed according to size, granularity and propidiumiodide intensity. Size and granularity of cells are determined by measurement of forward scatter (FSC) and side scatter (SSC) of the λ=488 nm excitation light, respectively. To discriminate cells with 4N DNA content from cell doublets (two attached cells with 2N DNA content each), the ratio between the area under the propidiumiodide peak (PE-A) and the height of the propidiumiodide peak (PE-H) for each cell is determined. Cell doublets need more time to pass through the laser beam, which causes a broadening of the propidiumiodide peak and an increase of the ratio PE-A/PE-H. Using this analysis, cells in 4N and cell doublets appear as distinct clouds in a scatter plot and are excluded from the analysis. Thus, the area under the propidiumiodide peak at λ=600 nm (PE-A) is a measure for the DNA content of the cells. PE-A is blotted against the measured cell number in a histogram in order to determine the percentage of analyzed cells in an individual stage of the cell cycle.

[3] = RKO arrested, p21^waf1 expressed, read-out: RKO arrested (p21^waf1 expressed) IC50
[4] = RKO proliferating, p21^waf1 not induced, read-out: RKO proliferating IC50

| IC50 [1] [µM] | SMILES | IC50 [2, 3] [µM] | IC50 [2, 4] [µM] | concentration inducing arrest in G1, depletion of cells in the S-phase and reduction of cells in the G2/M-phase (A549 NSCLC cells) |
| --- | --- | --- | --- | --- |
| 2.4 to 5.4 | Nc1ccccc1NC(=O)c1nc2c(s1)CN(C(=O)Nc1ccc(-c3ccccc3)cc1)CC2 [Example 1, N^2-(2-aminophenyl)-N5-biphenyl-4-yl-6,7-dihydro[1,3]thiazolo[5,4-c]pyridine-2,5(4H)-dicarboxamide] | 1.1 to 4.9 | 1.1 to 4 | around 3 μM |
| 2.4 to 5.4 | COc1ccc(NC(=O)N2CCc3nc(C(=O)Nc4ccccc4N)sc3C2)cc1 [Example 3, N^2-(2-aminophenyl)-N5-(4-methoxyphenyl)-6,7-dihydro[1,3]thiazolo[5,4-c]pyridine-2,5(4H)-dicarboxamide] | 1.1 to 4.9 | 1.1 to 4 | around 3 μM |
| 2.4 to 5.4 | CN(C)c1ccc(NC(=O)N2CCc3nc(C(=O)Nc4ccccc4N)sc3C2)cc1 [Example 2, N^2-(2-aminophenyl)-N5-[4-(dimethylamino)phenyl]-6,7-dihydro[1,3]thiazolo[5,4-c]pyridine-2,5(4H)-dicarboxamide] | 1.1 to 4.9 | 1.1 to 4 | around 3 μM |
| 2.4 to 5.4 | Nc1ccccc1NC(=O)c1nc2c(s1)CN(C(=O)Nc1cnc3ccccc3c1)CC2 [Example 12, N^2-(2-aminophenyl)-N5-quinolin-3-yl-6,7-dihydro[1,3]thiazolo[5,4-c]pyridine-2,5(4H)-dicarboxamide] | 1.1 to 4.9 | 1.1 to 4 | around 3 μM |
